From PubChem BioAssay AID330 (DTP/NCI, 2004)
Several values for one entry are separate records, joined by “and”; a condition that tells them apart may be missing. Equal values may be shown once. Toxic doses and inconclusive results are not listed.

Tested on: P388 leukemia ip, CD2F1 mice, survival T/C
Test: NCI In Vivo Anticancer Drug Screen. Data for tumor model P388 Leukemia (intraperitoneal) in CD2F1 (CDF1) mice
Details: endpoint: median survival time, higher = longer survival
Procedure, shortened: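 Mice carrying the transplanted tumor received test compound or vehicle. Survival was recorded in each group, and the value is the treated-group measurement divided by that of the vehicle-treated control group.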

[1] = dose: 6.25 mg/kg/injection, schedule: Q01DX009 (ip), vehicle: saline with Tween-80
[2] = dose: 12.5 mg/kg/injection, schedule: Q01DX009 (ip), vehicle: saline with Tween-80
[3] = dose: 25.0 mg/kg/injection, schedule: Q01DX009 (ip), vehicle: saline with Tween-80
[4] = dose: 50.0 mg/kg/injection, schedule: Q01DX009 (ip), vehicle: saline
[5] = dose: 100.0 mg/kg/injection, schedule: Q01DX009 (ip), vehicle: saline
[6] = dose: 50.0 mg/kg/injection, schedule: Q01DX009 (ip), vehicle: Klucel (hydroxypropylcellulose) (HPC)
[7] = dose: 100.0 mg/kg/injection, schedule: Q04DX002 (ip), vehicle: saline
[8] = dose: 200.0 mg/kg/injection, schedule: Q04DX002 (ip), vehicle: saline
[9] = dose: 400.0 mg/kg/injection, schedule: Q04DX002 (ip), vehicle: saline

O=C1c2ccccc2C(=Cc2cccnc2)c2ccccc21 was tested, and the T/C [1] was 94 % of control, the T/C [2] was 105 % of control and the T/C [3] was 102 % of control. The T/C (dose: 50.0 mg/kg/injection, schedule: Q01DX009 (ip), vehicle: saline with Tween-80) was 91 % of control.
In the case of CC(=N)c1ccc(C)cc1, the T/C [1] is reported as 90 % of control, the T/C (dose: 6.25 mg/kg/injection, schedule: Q04DX003 (ip), vehicle: saline with Tween-80) is reported as 100 % of control and the T/C [2] is reported as 90 % of control. For the same compound, the T/C (dose: 12.5 mg/kg/injection, schedule: Q04DX003 (ip), vehicle: saline with Tween-80) was 95 % of control, the T/C [3] was 104 % of control and the T/C (dose: 25.0 mg/kg/injection, schedule: Q04DX003 (ip), vehicle: saline with Tween-80) was 100 % of control.
O=C(O)CC(/C=C\C(=O)C(=O)O)=C\O was tested, and the T/C (dose: 1.56 mg/kg/injection, schedule: Q01DX009 (ip), vehicle: saline) was 100 % of control, the T/C (dose: 3.12 mg/kg/injection, schedule: Q01DX009 (ip), vehicle: saline) was 101 % of control and the T/C (dose: 6.25 mg/kg/injection, schedule: Q01DX009 (ip), vehicle: saline) was 100 % of control. For the same compound, the T/C (dose: 12.5 mg/kg/injection, schedule: Q01DX009 (ip), vehicle: saline) was 100 % of control and 114 % of control, the T/C (dose: 25.0 mg/kg/injection, schedule: Q01DX009 (ip), vehicle: saline) was 100 % of control and 109 % of control and the T/C [4] was 106 % of control. The T/C [5] was 112 % of control and the T/C (dose: 200.0 mg/kg/injection, schedule: Q01DX009 (ip), vehicle: saline) was 86 % of control.
In the case of CCOCCC(=NC(C)(C)C)Nc1ccccc1C, the T/C [4] is reported as 107 % of control and the T/C [5] is reported as 115 % of control.
In the case of O=C(Cl)C=Cc1ccc([N+](=O)[O-])cc1 (mixture of isomers), the T/C [4] is reported as 104 % of control and the T/C [5] is reported as 94 % of control.
For CC(C)(C)c1cc(/C=N/NC(=O)CC2CCCCC2)cc(C(C)(C)C)c1O, the T/C (dose: 60.0 mg/kg/injection, schedule: Q01DX005 (ip), vehicle: saline with Tween-80) was 96 % of control, the T/C (dose: 120.0 mg/kg/injection, schedule: Q01DX005 (ip), vehicle: saline with Tween-80) was 100 % of control and the T/C (dose: 240.0 mg/kg/injection, schedule: Q01DX005 (ip), vehicle: saline with Tween-80) was 87 % of control.
With CC(C)NC(=O)N(CCCCBr)N=O the T/C (dose: 6.25 mg/kg/injection, schedule: Q01DX009 (ip), vehicle: Klucel (hydroxypropylcellulose) (HPC)) was 92 % of control, the T/C (dose: 12.5 mg/kg/injection, schedule: Q01DX009 (ip), vehicle: Klucel (hydroxypropylcellulose) (HPC)) was 99 % of control and the T/C (dose: 25.0 mg/kg/injection, schedule: Q01DX009 (ip), vehicle: Klucel (hydroxypropylcellulose) (HPC)) was 101 % of control. For the same compound, the T/C [6] was 117 % of control.
For O=C1CCC(C(Sc2ccccc2)Sc2ccccc2)C1 (stereo unspecified), the T/C [6] was 110 % of control, the T/C (dose: 100.0 mg/kg/injection, schedule: Q01DX009 (ip), vehicle: Klucel (hydroxypropylcellulose) (HPC)) was 106 % of control and the T/C (dose: 200.0 mg/kg/injection, schedule: Q01DX009 (ip), vehicle: Klucel (hydroxypropylcellulose) (HPC)) was 93 % of control.
With CN(C)c1ccc(C(Nc2ccc(S(=O)(=O)Nc3ccccc3)cc2)c2ccc(N(C)C)cc2)cc1 the T/C (dose: 100.0 mg/kg/injection, schedule: Q04DX003 (ip), vehicle: Klucel (hydroxypropylcellulose) (HPC)) was 105 % of control, the T/C (dose: 200.0 mg/kg/injection, schedule: Q04DX003 (ip), vehicle: Klucel (hydroxypropylcellulose) (HPC)) was 110 % of control and the T/C (dose: 400.0 mg/kg/injection, schedule: Q04DX003 (ip), vehicle: Klucel (hydroxypropylcellulose) (HPC)) was 105 % of control.
CCOC(=O)Cn1nc([O-])[n+]2ccccc12 was tested, and the T/C [7] was 100 % of control, the T/C [8] was 107 % of control and the T/C [9] was 98 % of control.
For O=C1CC2(CC(=O)NC2=O)C(=O)N1, the T/C (dose: 100.0 mg/kg/injection, schedule: Q01DX001 (ip), vehicle: saline) was 100 % of control, the T/C (dose: 200.0 mg/kg/injection, schedule: Q01DX001 (ip), vehicle: saline) was 97 % of control and the T/C (dose: 400.0 mg/kg/injection, schedule: Q01DX001 (ip), vehicle: saline) was 92 % of control.
In the case of CC(C(O)CO)n1cnc2c(NCC(O)CO)ncnc21 (stereo unspecified), the T/C (dose: 100.0 mg/kg/injection, schedule: Q01DX001 (ip), vehicle: saline with Tween-80) is reported as 101 % of control, the T/C (dose: 200.0 mg/kg/injection, schedule: Q01DX001 (ip), vehicle: saline with Tween-80) is reported as 107 % of control and the T/C (dose: 400.0 mg/kg/injection, schedule: Q01DX001 (ip), vehicle: saline with Tween-80) is reported as 100 % of control.
For O=C(O)CC(=O)NC1c2ccccc2Oc2ccccc21, the T/C (dose: 50.0 mg/kg/injection, schedule: Q01DX005 (ip), vehicle: Klucel (hydroxypropylcellulose) (HPC)) was 94 % of control, the T/C (dose: 100.0 mg/kg/injection, schedule: Q01DX005 (ip), vehicle: Klucel (hydroxypropylcellulose) (HPC)) was 97 % of control and the T/C (dose: 200.0 mg/kg/injection, schedule: Q01DX005 (ip), vehicle: Klucel (hydroxypropylcellulose) (HPC)) was 99 % of control.
Cc1cc(=O)c2c(N(C)C)cccc2[nH]1 was tested, and the T/C (dose: 50.0 mg/kg/injection, schedule: Q01DX009 (ip), vehicle: acid diluted with saline) was 104 % of control, the T/C (dose: 100.0 mg/kg/injection, schedule: Q01DX009 (ip), vehicle: acid diluted with saline) was 91 % of control and the T/C (dose: 200.0 mg/kg/injection, schedule: Q01DX009 (ip), vehicle: acid diluted with saline) was 96 % of control.
CCN(CC)CCNc1ccc(C)c2sc3cc(O)ccc3c(=O)c12 was tested, and the T/C (dose: 50.0 mg/kg/injection, schedule: Q01DX005 (ip), vehicle: saline) was 107 % of control, the T/C (dose: 100.0 mg/kg/injection, schedule: Q01DX005 (ip), vehicle: saline) was 108 % of control and the T/C (dose: 200.0 mg/kg/injection, schedule: Q01DX005 (ip), vehicle: saline) was 106 % of control.
With CSC1SCC2C(=O)N(C)C(C(C)C)C(=O)OCC(NC(=O)c3cnc4ccccc4n3)C(=O)NC(C)C(=O)N(C)C1C(=O)N(C)C(C(C)C)C(=O)OCC(NC(=O)c1cnc3ccccc3n1)C(=O)NC(C)C(=O)N2C (stereo unspecified) the T/C (dose: 0.5 micrograms/kg/injection, schedule: Q01DX010 (ip), vehicle: saline) was 100 % of control, the T/C (dose: 30.0 micrograms/kg/injection, schedule: Q01DX009 (oral), vehicle: saline with Tween-80) was 97 % of control and the T/C (dose: 60.0 micrograms/kg/injection, schedule: Q01DX009 (ip), vehicle: saline with Tween-80) was 205 % of control. For the same compound, the T/C (dose: 60.0 micrograms/kg/injection, schedule: Q01DX009 (oral), vehicle: saline with Tween-80) was 101 % of control, the T/C (dose: 120.0 micrograms/kg/injection, schedule: Q01DX009 (oral), vehicle: saline with Tween-80) was 96 % of control and the T/C (dose: 240.0 micrograms/kg/injection, schedule: Q01DX009 (ip), vehicle: saline with Tween-80) was 117 % of control. For the same compound, the T/C (dose: 240.0 micrograms/kg/injection, schedule: Q01DX009 (oral), vehicle: saline with Tween-80) was 99 % of control and the T/C (dose: 480.0 micrograms/kg/injection, schedule: Q01DX009 (oral), vehicle: saline with Tween-80) was 96 % of control.
In the case of COc1cc2c(c(OC)c1OC)-c1cc3c(cc1C(OC1OC(CO)C(O)C(O)C1O)C1COC(=O)C1C2)OCO3 (stereo unspecified), the T/C (dose: 15.38 mg/kg/injection, schedule: Q01DX005 (ip), vehicle: Klucel (hydroxypropylcellulose) (HPC)) is reported as 108 % of control, the T/C (dose: 30.75 mg/kg/injection, schedule: Q01DX005 (ip), vehicle: Klucel (hydroxypropylcellulose) (HPC)) is reported as 100 % of control and the T/C (dose: 61.5 mg/kg/injection, schedule: Q01DX005 (ip), vehicle: Klucel (hydroxypropylcellulose) (HPC)) is reported as 113 % of control. The T/C (dose: 123.0 mg/kg/injection, schedule: Q01DX005 (ip), vehicle: Klucel (hydroxypropylcellulose) (HPC)) was 121 % of control.
With COc1cc2c(cc1Cl)nc1c(=O)[nH]c(=O)nc-1n2CCN1CCCC1 the T/C (dose: 12.5 mg/kg/injection, schedule: Q01DX005 (ip), vehicle: saline with Tween-80) was 100 % of control, the T/C (dose: 25.0 mg/kg/injection, schedule: Q01DX005 (ip), vehicle: saline with Tween-80) was 108 % of control and the T/C (dose: 50.0 mg/kg/injection, schedule: Q01DX005 (ip), vehicle: saline with Tween-80) was 111 % of control and 115 % of control. For the same compound, the T/C (dose: 100.0 mg/kg/injection, schedule: Q01DX005 (ip), vehicle: saline with Tween-80) was 116 % of control and the T/C (dose: 200.0 mg/kg/injection, schedule: Q01DX005 (ip), vehicle: saline with Tween-80) was 114 % of control.
For CCOc1ccc(CO)cc1, the T/C (dose: 100.0 mg/kg/injection, schedule: Q04DX003 (ip), vehicle: saline with Tween-80) was 120 % of control, the T/C (dose: 200.0 mg/kg/injection, schedule: Q04DX003 (ip), vehicle: saline with Tween-80) was 120 % of control and the T/C (dose: 400.0 mg/kg/injection, schedule: Q04DX003 (ip), vehicle: saline with Tween-80) was 120 % of control.
In the case of CN1C(=O)CC(=O)N(C)P1(=O)Oc1ccccc1, the T/C [7] is reported as 101 % of control, the T/C [8] is reported as 101 % of control and the T/C [9] is reported as 101 % of control.
